Laboratory results: ChEMBL document CHEMBL1152959, “Design, synthesis and dopamine D4 receptor binding activities of new N-heteroaromatic 5/6-ring Mannich bases” (Bioorg Med Chem, 2009)

Columns and labels:
[1] = target: T1, D(4) dopamine receptor (Homo sapiens) (UniProt P21917); assay: Displacement of [3H]spiperone from human cloned dopamine D4.4 receptor expressed in CHO cells at 100 nM; assay type: cell-based
T1 sequence (whole entry): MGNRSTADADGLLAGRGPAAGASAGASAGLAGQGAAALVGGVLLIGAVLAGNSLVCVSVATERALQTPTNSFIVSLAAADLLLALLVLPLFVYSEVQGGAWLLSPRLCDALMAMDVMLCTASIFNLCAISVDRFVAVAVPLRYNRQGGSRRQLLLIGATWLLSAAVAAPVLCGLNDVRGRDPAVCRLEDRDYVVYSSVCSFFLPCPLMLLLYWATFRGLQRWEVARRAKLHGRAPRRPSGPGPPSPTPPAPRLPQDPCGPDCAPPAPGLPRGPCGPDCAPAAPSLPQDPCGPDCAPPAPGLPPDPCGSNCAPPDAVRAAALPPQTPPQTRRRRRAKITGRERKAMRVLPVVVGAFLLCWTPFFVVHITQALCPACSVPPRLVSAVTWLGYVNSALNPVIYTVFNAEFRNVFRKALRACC

[2] = target: D(1A) dopamine receptor (Sus scrofa) (UniProt P50130); assay: Displacement of [3H]SCH23390 from pig dopamine D1 receptor at 100 nM
D(1A) dopamine receptor (Sus scrofa), sequence (P50130 whole entry): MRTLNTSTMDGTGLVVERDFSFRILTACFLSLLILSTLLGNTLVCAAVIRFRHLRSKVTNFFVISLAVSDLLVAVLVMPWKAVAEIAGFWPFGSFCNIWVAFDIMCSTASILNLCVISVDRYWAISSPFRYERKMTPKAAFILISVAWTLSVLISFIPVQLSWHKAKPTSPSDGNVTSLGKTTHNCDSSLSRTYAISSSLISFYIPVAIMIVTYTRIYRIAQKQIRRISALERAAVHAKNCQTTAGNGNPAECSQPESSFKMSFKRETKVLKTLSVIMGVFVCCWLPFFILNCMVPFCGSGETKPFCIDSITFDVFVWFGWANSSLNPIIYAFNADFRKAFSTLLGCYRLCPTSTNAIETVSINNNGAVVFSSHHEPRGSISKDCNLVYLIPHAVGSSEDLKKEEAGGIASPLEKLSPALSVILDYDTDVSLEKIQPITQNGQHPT

D(2) dopamine receptor [3] = target: T2, D(2) dopamine receptor (Homo sapiens, UniProt P14416); assay: Displacement of [3H]spiperone from human cloned dopamine D2 long receptor expressed in CHO cells at 100 nM; assay type: cell-based
T2 sequence (P14416 whole entry): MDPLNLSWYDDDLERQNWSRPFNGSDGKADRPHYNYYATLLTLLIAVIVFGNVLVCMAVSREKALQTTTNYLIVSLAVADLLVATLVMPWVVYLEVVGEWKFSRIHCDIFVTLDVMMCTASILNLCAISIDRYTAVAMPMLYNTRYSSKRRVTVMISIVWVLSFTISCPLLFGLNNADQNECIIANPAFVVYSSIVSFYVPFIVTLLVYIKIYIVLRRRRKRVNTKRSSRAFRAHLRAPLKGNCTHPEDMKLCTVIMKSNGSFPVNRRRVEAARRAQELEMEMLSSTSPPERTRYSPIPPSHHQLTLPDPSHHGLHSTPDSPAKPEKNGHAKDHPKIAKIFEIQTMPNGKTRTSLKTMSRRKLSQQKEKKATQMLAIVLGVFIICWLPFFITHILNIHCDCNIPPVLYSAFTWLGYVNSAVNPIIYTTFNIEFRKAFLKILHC

D(3) dopamine receptor = D(3) dopamine receptor (Homo sapiens, UniProt P35462); assay: biochemical
D(3) dopamine receptor, sequence (P35462 whole entry): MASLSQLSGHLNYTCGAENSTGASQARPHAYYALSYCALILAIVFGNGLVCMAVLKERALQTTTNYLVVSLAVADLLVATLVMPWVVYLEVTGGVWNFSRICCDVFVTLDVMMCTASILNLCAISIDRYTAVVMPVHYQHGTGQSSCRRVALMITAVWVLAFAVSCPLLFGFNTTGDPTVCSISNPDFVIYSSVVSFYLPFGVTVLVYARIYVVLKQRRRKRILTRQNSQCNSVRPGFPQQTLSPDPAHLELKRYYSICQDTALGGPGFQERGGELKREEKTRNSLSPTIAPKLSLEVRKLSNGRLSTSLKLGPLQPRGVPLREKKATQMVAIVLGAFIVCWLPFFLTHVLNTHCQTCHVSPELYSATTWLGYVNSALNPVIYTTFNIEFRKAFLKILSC
Description: Displacement of [3H]spiroperidol from human cloned dopamine D3 receptor expressed in CHO cells

D(2) dopamine receptor [4] = target: T2, D(2) dopamine receptor; assay: biochemical
Description: Displacement of [3H]SCH23390 from human cloned dopamine D2 long receptor expressed in CHO cells

D(1A) dopamine receptor = D(1A) dopamine receptor (Bos taurus, UniProt Q95136)
D(1A) dopamine receptor, sequence (Q95136 whole entry): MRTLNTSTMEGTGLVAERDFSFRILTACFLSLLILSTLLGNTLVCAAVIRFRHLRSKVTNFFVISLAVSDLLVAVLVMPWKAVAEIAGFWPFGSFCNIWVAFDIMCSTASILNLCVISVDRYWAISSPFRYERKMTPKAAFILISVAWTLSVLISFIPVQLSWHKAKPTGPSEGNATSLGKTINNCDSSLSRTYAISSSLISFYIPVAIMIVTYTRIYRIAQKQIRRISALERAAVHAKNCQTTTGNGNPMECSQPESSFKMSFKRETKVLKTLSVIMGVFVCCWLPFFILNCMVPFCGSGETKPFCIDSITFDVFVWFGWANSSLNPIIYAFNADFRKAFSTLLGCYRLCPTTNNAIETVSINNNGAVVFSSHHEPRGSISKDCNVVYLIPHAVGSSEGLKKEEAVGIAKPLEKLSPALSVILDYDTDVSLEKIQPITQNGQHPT
Description: Displacement of [3H]SCH23390 from bovine dopamine D1 receptor

D(2) dopamine receptor [5] = target: T2, D(2) dopamine receptor; assay: biochemical; remark: listed apart in the source
Description: Displacement of [3H]spiroperidol from human cloned dopamine D2 short receptor expressed in CHO cells

D(4) dopamine receptor = target: T3, D(4) dopamine receptor (Homo sapiens, UniProt P21917); assay: Displacement of [3H]spiroperidol from human cloned dopamine D4.4 receptor expressed in CHO cells; assay type: cell-based
T3 sequence (P21917 whole entry): T1 sequence (whole entry)

SMILES | Activity [1] | Activity [2] | Activity (D(2) dopamine receptor [3]) | Ki (D(3) dopamine receptor) | Ki (D(2) dopamine receptor [4]) | Ki (D(1A) dopamine receptor) | Ki (D(2) dopamine receptor [5]) | Ki (D(4) dopamine receptor)
CCOC(=O)c1nc2cc(C)nc(C)n2c1CN1CCN(c2ccc(OC)cc2)CC1 | 0% | 0% | 0% |  |  |  |  | 
COc1ccc(N2CCN(Cc3cnc4cc(C)ncn34)CC2)cc1 | 0% | 0% | 0% |  |  |  |  | 
Cc1cc2ncc(CN3CCN(c4ccccc4)CC3)n2c(C)n1 | 0% | 0% | 0% |  |  |  |  | 
COc1ccccc1N1CCN(Cc2cnc3cc(C)ncn23)CC1 | 0% | 0% | 0% |  |  |  |  | 
Cc1cc2ncc(CN3CCN(c4ccc(Cl)c(Cl)c4)CC3)n2cn1 | 0% | 0% | 0% |  |  |  |  | 
COc1ccccc1N1CCN(Cc2c(C)nc3cc(C)nc(C)n23)CC1 | 60% | 0% | 0% | 3400 nM | 2300 nM | 8400 nM | 2900 nM | 14 nM
Cc1cc2nc(C)c(CN3CCN(c4ccc(F)cc4)CC3)n2c(C)n1 |  |  |  | 22000 nM | 4700 nM | 12000 nM | 3500 nM | 360 nM
COc1ccc(N2CCN(Cc3c(C)nc4cc(C)ncn34)CC2)cc1 | 60% | 0% | 0% | 13000 nM | 9100 nM | 27000 nM | 13000 nM | 12 nM
Cn1c(N2CCCC2)nc2c(CN3CCN(c4ccccc4)CC3)c[nH]c2c1=O |  |  |  | 330 nM | 390 nM | 250 nM | 180 nM | 3.8 nM
COc1ccccc1N1CCN(Cc2c(C)[nH]c3nc(N(C)C)ncc23)CC1 | 80% | 0% | 20% | 6100 nM | 2600 nM | 6800 nM | 2900 nM | 6.4 nM
Cn1c(N2CCOCC2)nc2c(CN3CCN(c4ccccc4)CC3)c[nH]c2c1=O |  |  |  | 2700 nM | 1100 nM | 520 nM | 730 nM | 25 nM
Cn1c(N2CCCC2)nc2c(CN3CCN(c4ccc(F)cc4)CC3)c[nH]c2c1=O |  |  |  | 630 nM | 840 nM | 160 nM | 400 nM | 16 nM
Cn1c(N2CCCC2)nc2c(CN3CCN(c4ccccn4)CC3)c[nH]c2c1=O |  |  |  | 310 nM | 270 nM | 790 nM | 150 nM | 2.8 nM
Cc1cc2nc(C)c(CN3CCN(c4ccc(Cl)cc4)CC3)n2c(C)n1 |  |  |  | 3100 nM | 26000 nM | 7100 nM | 57000 nM | 66 nM
COc1ccc(N2CCN(Cc3c(C)[nH]c4nc(N(C)C)ncc34)CC2)cc1 | 0% | 0% | 0% |  |  |  |  | 
COc1ccccc1N1CCN(Cc2cnc3cc(C)nc(C)n23)CC1 |  |  |  | 1500 nM | 1300 nM | 11000 nM | 570 nM | 66 nM
Cc1cc2nc(C)c(CN3CCN(c4ccccc4)CC3)n2cn1 | 0% | 0% | 0% |  |  |  |  | 
Cc1cc2ncc(CN3CCN(c4ccc(Cl)c(Cl)c4)CC3)n2c(C)n1 | 0% | 0% | 0% |  |  |  |  | 
Cc1cc2ncc(CN3CCN(c4ccc(Cl)cc4)CC3)n2c(C)n1 | 0% | 0% | 0% |  |  |  |  | 
COc1ccccc1N1CCN(Cc2cc3c(=O)[nH]c(N(C)C)nc3[nH]2)CC1 | 60% | 20% | 20% | 960 nM | 130 nM | 8400 nM | 170 nM | 2.4 nM
